Assay results published in patent publication US20240199546A1, “INHIBITORS OF SOLUTE CARRIER FAMILY 6A MEMBER 19 (SLC6A19) AND METHODS OF USE THEREOF” (Maze Therapeutics, Inc., priority 2022, published 2024).

Columns and labels:
human SLC6A19 and TMEM27 [1] = target: T1, human SLC6A19 and TMEM27 (Homo sapiens, UniProt Q695T7); assay: Radiolabelled (3H) leucine uptake in CHO cells with doxycycline-inducible expression of human SLC6A19 and TMEM27 (Example B-1); type: cell-based; conditions: CHO cells with doxycycline-inducible expression of human SLC6A19 and TMEM27, read-out: SLC6A19_Radioligand Uptake Assay IC50
T1 construct: expressed in transfected cells
T1 sequence (Q695T7 1-634): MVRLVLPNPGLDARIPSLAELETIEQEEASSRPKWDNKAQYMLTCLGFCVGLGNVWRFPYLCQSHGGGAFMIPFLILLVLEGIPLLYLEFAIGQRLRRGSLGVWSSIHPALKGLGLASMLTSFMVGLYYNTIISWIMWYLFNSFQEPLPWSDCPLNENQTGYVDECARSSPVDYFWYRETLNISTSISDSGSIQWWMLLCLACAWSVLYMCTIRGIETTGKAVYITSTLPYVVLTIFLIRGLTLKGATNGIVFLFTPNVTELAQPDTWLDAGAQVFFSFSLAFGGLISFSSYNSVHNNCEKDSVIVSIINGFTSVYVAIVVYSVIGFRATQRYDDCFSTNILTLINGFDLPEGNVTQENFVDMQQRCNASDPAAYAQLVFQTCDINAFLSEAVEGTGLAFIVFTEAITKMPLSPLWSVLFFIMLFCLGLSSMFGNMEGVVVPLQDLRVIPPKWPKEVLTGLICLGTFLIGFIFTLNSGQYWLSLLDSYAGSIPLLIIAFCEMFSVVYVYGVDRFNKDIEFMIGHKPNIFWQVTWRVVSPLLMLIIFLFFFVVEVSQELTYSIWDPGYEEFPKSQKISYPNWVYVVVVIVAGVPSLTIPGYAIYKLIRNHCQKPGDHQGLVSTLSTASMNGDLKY
T1 sequence (Q9HBJ8 15-222 partner): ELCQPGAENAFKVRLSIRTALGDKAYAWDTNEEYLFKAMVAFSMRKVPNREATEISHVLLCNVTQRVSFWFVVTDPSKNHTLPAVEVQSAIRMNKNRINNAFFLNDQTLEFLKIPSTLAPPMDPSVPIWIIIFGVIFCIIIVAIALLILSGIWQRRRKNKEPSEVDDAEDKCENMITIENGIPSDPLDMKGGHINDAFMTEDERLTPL
Summary of the method: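 CHO cells were induced with doxycycline for 18 h at 37 °C, washed in HBSS, then exposed to compounds for 1 h: 8-point, 3-fold dilutions in duplicate, 0.5% DMSO final. Uptake measured by scintillation counting after 2 h shaking. Activity normalized with positive control as 0% and DMSO as 100%.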

human SLC6A19 and TMEM27 [2] = target: T1, human SLC6A19 and TMEM27; assay: 13C6,15N-isoleucine uptake in CHO cells with doxycycline-inducible expression of human SLC6A19 and TMEM27, RapidFire mass spectrometry (Example B-2); type: cell-based; conditions: read-out: SLC6A19_RapidFire Uptake Assay IC50
Summary of the method: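 CHO cells induced overnight with doxycycline to express human SLC6A19 plus TMEM27; 20 min preincubation with compound (10-point 2-fold series, duplicate) at 37 °C in HEPES buffer pH 7.2, then 20 min with 13C6,15N-isoleucine. Intracellular label quantified by RapidFire MS against 13C-leucine standard; positive control defined 100% inhibition.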

| Structure (SMILES) | IC50 (human SLC6A19 and TMEM27 [1]) [nM] | IC50 (human SLC6A19 and TMEM27 [2]) [nM] |
| --- | --- | --- |
| CC1(C(=O)NCc2cc3cc(Cl)c(CCc4ccon4)cc3[nH]2)CC1 [Compound 150, N-((5-chloro-6-(2-(isoxazol-3-yl)ethyl)-1H-indol-2-yl)methyl)-1-methylcyclopropane-1-carboxamide] | 120 | 36 |
| CC1(C(=O)NCc2cc3cc(Cl)c(NCc4ccon4)cc3[nH]2)CC1 [Compound 151, N-((5-chloro-6-((isoxazol-3-ylmethyl)amino)-1H-indol-2-yl)methyl)-1-methylcyclopropane-1-carboxamide] | 182 | 173 |
| CC1(C(=O)NCc2cc3ccc(NCc4ccon4)cc3[nH]2)CC1 [Compound 152, N-((6-((isoxazol-3-ylmethyl)amino)-1H-indol-2-yl)methyl)-1-methylcyclopropane-1-carboxamide] | 531 | 2060 |
| Cn1ncc(COc2cc3[nH]c(CNC(=O)C4(C)CC4)cc3cc2Cl)n1 [Compound 172, N-((5-chloro-6-((2-methyl-2H-1,2,3-triazol-4-yl)methoxy)-1H-indol-2-yl)methyl)-1-methylcyclopropane-1-carboxamide] | 157 | 41 |
| CC1(C(=O)NCc2cc3cc(Cl)c(OCc4cncs4)cc3[nH]2)CC1 [Compound 177, N-((5-chloro-6-(thiazol-5-ylmethoxy)-1H-indol-2-yl)methyl)-1-methylcyclopropane-1-carboxamide] | 307 | 275 |
| CC1(C(=O)NCc2cc3cc(Cl)c(OCc4cscn4)cc3[nH]2)CC1 [Compound 184, N-((5-chloro-6-(thiazol-4-ylmethoxy)-1H-indol-2-yl)methyl)-1-methylcyclopropane-1-carboxamide] | 144 | 59 |
| CC1(C(=O)NCc2cc3ccc(OCCc4ccon4)cc3[nH]2)CC1 [Compound 190, N-((6-(2-(isoxazol-3-yl)ethoxy)-1H-indol-2-yl)methyl)-1-methylcyclopropane-1-carboxamide] | 185 | 294 |
| CC1(C(=O)NCc2cc3ccc(OCCc4cscn4)cc3[nH]2)CC1 [Compound 191, 1-methyl-N-((6-(2-(thiazol-4-yl)ethoxy)-1H-indol-2-yl)methyl)cyclopropane-1-carboxamide] | 1680 | 1220 |
| CC1(C(=O)NCc2cc3ccc(OCc4c[nH]nn4)cc3[nH]2)CC1 [Compound 194, N-((6-((1H-1,2,3-triazol-4-yl)methoxy)-1H-indol-2-yl)methyl)-1-methylcyclopropane-1-carboxamide] | 6780 | 4940 |
| CC1(C(=O)NCc2cc3ccc(SCc4ccon4)cc3[nH]2)CC1 [Compound 196, N-((6-((isoxazol-3-ylmethyl)thio)-1H-indol-2-yl)methyl)-1-methylcyclopropanecarboxamide] | 207 | 460 |
| CC(=O)NCc1cc2cc(F)c(OCc3cc(C)on3)cc2[nH]1 [Compound 205, N-((5-fluoro-6-((5-methylisoxazol-3-yl)methoxy)-1H-indol-2-yl)methyl)acetamide] | 787 | 714 |
| CNC(=O)NCc1cc2cc(Cl)c(OCc3cscn3)cc2[nH]1 [Compound 209, 1-((5-chloro-6-(thiazol-4-ylmethoxy)-1H-indol-2-yl)methyl)-3-methylurea] | 130 | 117 |
| CNC(=O)NCc1cc2cc(Cl)c(OCc3cc(C)no3)cc2[nH]1 [Compound 211, 1-((5-chloro-6-((3-methylisoxazol-5-yl)methoxy)-1H-indol-2-yl)methyl)-3-methylurea] | 87.7 | 38.1 |
| CNC(=O)NCc1cc2cc(F)c(OCc3cscn3)cc2[nH]1 [Compound 214, 1-((5-fluoro-6-(thiazol-4-ylmethoxy)-1H-indol-2-yl)methyl)-3-methylurea] | 152 | 193 |
| CNC(=O)NCc1cc2cc(F)c(OCc3cocn3)cc2[nH]1 [Compound 215, 1-((5-fluoro-6-(oxazol-4-ylmethoxy)-1H-indol-2-yl)methyl)-3-methylurea] | 977 | 3890 |
| CNC(=O)NCc1cc2cc(F)c(OCc3ccon3)cc2[nH]1 [Compound 216, 1-((5-fluoro-6-(isoxazol-3-ylmethoxy)-1H-indol-2-yl)methyl)-3-methylurea] | 1410 | 3740 |

| Structure (SMILES) | IC50 (human SLC6A19 and TMEM27 [1]) [nM] | IC50 (human SLC6A19 and TMEM27 [2]) [nM] |
| --- | --- | --- |
| CC(=O)NCc1cc2cc(Cl)c(OCc3cc(C)no3)cc2[nH]1 [Compound 218, N-((5-chloro-6-((3-methylisoxazol-5-yl)methoxy)-1H-indol-2-yl)methyl)acetamide] | 69.4 | 27.5 |
| CC(=O)NCc1cc2cc(Cl)c(OCc3ccno3)cc2[nH]1 [Compound 219, N-((5-chloro-6-(isoxazol-5-ylmethoxy)-1H-indol-2-yl)methyl)acetamide] | 134 | 103 |
| CC(=O)NCc1cc2cc(F)c(OCc3ccno3)cc2[nH]1 [Compound 220, N-((5-fluoro-6-(isoxazol-5-ylmethoxy)-1H-indol-2-yl)methyl)acetamide] | 1550 | 3480 |
| CC(=O)NCc1cc2cc(Cl)c(OCc3cnn(C)n3)cc2[nH]1 [Compound 221, N-((5-chloro-6-((2-methyl-2H-1,2,3-triazol-4-yl)methoxy)-1H-indol-2-yl)methyl)acetamide] | 288 | 468 |
| CC(=O)NCc1cc2cc(F)c(OCc3cnn(C)n3)cc2[nH]1 [Compound 222, N-((5-fluoro-6-((2-methyl-2H-1,2,3-triazol-4-yl)methoxy)-1H-indol-2-yl)methyl)acetamide] | 3170 | 6610 |
| CC(=O)NCc1cc2cc(F)c(OCc3cc(C)no3)cc2[nH]1 [Compound 223, N-((5-fluoro-6-((3-methylisoxazol-5-yl)methoxy)-1H-indol-2-yl)methyl)acetamide] | 203 | 796 |
| CC(=O)NCc1cc2cc(Cl)c(OCc3cccc(F)n3)cc2[nH]1 [Compound 225, N-((5-chloro-6-((6-fluoropyridin-2-yl)methoxy)-1H-indol-2-yl)methyl)acetamide] | 156 | 80.8 |
| CC(=O)NCc1cc2cc(F)c(OCc3cccc(F)n3)cc2[nH]1 [Compound 226, N-((5-fluoro-6-((6-fluoropyridin-2-yl)methoxy)-1H-indol-2-yl)methyl)acetamide] | 1120 | 960 |
| CC(=O)NCc1cc2cc(Cl)c(NCc3ccon3)cc2[nH]1 [Compound 227, N-((5-chloro-6-((isoxazol-3-ylmethyl)amino)-1H-indol-2-yl)methyl)acetamide] | 317 | 486 |
| CC(=O)NCc1cc2cc(F)c(NCc3ccon3)cc2[nH]1 [Compound 228, N-((5-fluoro-6-((isoxazol-3-ylmethyl)amino)-1H-indol-2-yl)methyl)acetamide] | 3170 | 11200 |
| CC(=O)NCc1cc2cc(Cl)c(NCc3cscn3)cc2[nH]1 [Compound 229, N-((5-chloro-6-((thiazol-4-ylmethyl)amino)-1H-indol-2-yl)methyl)acetamide] | 157 | 204 |
| O=C(NCc1cc2cc(F)c(OCc3cscn3)cc2[nH]1)C1(F)CC1 [Compound 230, 1-fluoro-N-((5-fluoro-6-(thiazol-4-ylmethoxy)-1H-indol-2-yl)methyl)cyclopropane-1-carboxamide] | 69.6 | 22.9 |
| O=C(NCc1cc2cc(Cl)c(OCc3cscn3)cc2[nH]1)C1(F)CC1 [Compound 231, N-((5-chloro-6-(thiazol-4-ylmethoxy)-1H-indol-2-yl)methyl)-1-fluorocyclopropane-1-carboxamide] | 139 | 49.3 |
| O=C(NCc1cc2cc(Cl)c(OCc3ccon3)cc2[nH]1)C1(F)CC1 [Compound 232, N-((5-chloro-6-(isoxazol-3-ylmethoxy)-1H-indol-2-yl)methyl)-1-fluorocyclopropane-1-carboxamide] | 101 | 41.2 |
| O=C(NCc1cc2cc(F)c(OCc3ccon3)cc2[nH]1)C1(F)CC1 [Compound 233, 1-fluoro-N-((5-fluoro-6-(isoxazol-3-ylmethoxy)-1H-indol-2-yl)methyl)cyclopropane-1-carboxamide] | 112 | 57 |
